According to patent publication US7393939B2, “Placental organic anion transporter and gene thereof” (Japan Science and Technology Corporation, priority 1999, dated 2008):
“Also recorded” adds a separate entry of the source. Where a name gives a salt, the structure may show the parent alone. Read-outs that look alike come from different tables or passages of the source.

What was measured:
Format in all cases: cell-based
OAT4 [1] = target: T1, OAT4 (Homo sapiens, UniProt Q9NSA0); assay: Inhibition experiment: ^3H-estrone sulfate uptake in OAT4 cRNA-injected oocytes with various compounds; conditions: 50 nM ^3H-estrone sulfate; 500 μM unlabeled compound; FIG. 4
T1 construct: cRNA (an RNA complementary to cDNA) was prepared from a plasmid containing this cDNA; expressed in transfected cells; host or cells: Xenopus laevis oocytes injected with OAT4 cRNA (transcribed in vitro with T7 RNA polymerase from plasmid pZL holding the hOAT4 cDNA)
T1 sequence (Q9NSA0 1-550): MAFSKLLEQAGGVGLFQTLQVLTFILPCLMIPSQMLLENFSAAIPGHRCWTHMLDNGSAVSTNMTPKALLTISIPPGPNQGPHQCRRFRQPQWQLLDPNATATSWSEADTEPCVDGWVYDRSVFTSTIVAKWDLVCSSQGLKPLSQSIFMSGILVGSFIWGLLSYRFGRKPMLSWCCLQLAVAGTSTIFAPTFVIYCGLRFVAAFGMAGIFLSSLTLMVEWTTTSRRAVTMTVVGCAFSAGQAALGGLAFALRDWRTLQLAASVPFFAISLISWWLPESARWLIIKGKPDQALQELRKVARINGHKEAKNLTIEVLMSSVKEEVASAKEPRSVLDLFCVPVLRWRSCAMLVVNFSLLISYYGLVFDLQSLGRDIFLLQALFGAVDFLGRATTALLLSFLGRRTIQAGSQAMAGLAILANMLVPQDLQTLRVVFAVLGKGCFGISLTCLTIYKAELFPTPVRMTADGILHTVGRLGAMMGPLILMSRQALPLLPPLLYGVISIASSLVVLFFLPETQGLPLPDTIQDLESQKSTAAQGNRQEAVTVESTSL
Description: Further, in order to investigate the substrate selectivity of OAT4 of the present invention, various ionic substances were added to an incorporation experimental system of ^3H-estrone sulfate and the influence thereby was tested (Inhibition Experiment).
In order to further investigate the substrate selectivity of OAT4, various anionic substances were added to a system in an uptake experiment system of ^3H-estrone sulfate in oocytes into which OAT4 cRNA was injected and the influence was investigated (inhibition experiment). An uptake experiment of ^3H-estrone sulfate was carried out according to the above-mentioned method using oocytes into which OAT4 cRNA was injected. Uptake of 50 nM ^3H-estrone sulfate was measured in the presence and absence of 500 μM of various compounds (unlabeled).

OAT4 [2] = target: T1, OAT4
Description: In order to confirm that the resulting OTA4 has an organic anion transport activity, cRNA (an RNA complementary to cDNA) was prepared from a plasmid containing this cDNA according to a method of Sekine, et al. (Sekine, T., et al., J. Biol. Chem., volume 272, pages 18526-18529, 1997) and injected into oocytes of Xenopus laevis and the oocytes were subjected to an incorporation experiment for various organic anions and organic cations which were labeled with radioisotopes.
From an OAT4 cDNA-containing plasmid was prepared cRNA (an RNA complementary to cDNA) in vitro using a T7 RNA polymerase (Sekine, T., et al., J. Biol. Chem., volume 272, pages 18526-18529, 1997).
The resulting cRNA was injected into oocytes of Xenopus laevis according to the already-reported method (Sekine, T., et al., J. Biol. Chem., volume 272, pages 18526-18529, 1997) and the oocytes were subjected to an incorporation experiment using various labeled organic anions and organic cations.

OAT4 [3] = target: T1, OAT4; assay: Inhibitory test of OAT4 by sulfate conjugates and glucuronic acid conjugates; conditions: FIG. 5
OAT4 [4] = target: T1, OAT4; assay: Cation (sodium) dependency of estrone sulfate transport via OAT4 in oocytes; conditions: extracellular sodium substituted with lithium and choline; FIG. 3
Description: Dependency of the OAT4 of the present invention on sodium in an organic anion transport was investigated. Incorporation of estrone sulfate by OAT4 was tested in the presence of various extracellular cations.
Sodium-dependency of OAT4 in an organic anion transport was investigated. Even when extracellular sodium was substituted with lithium and choline, there was no change in the transport of estrone sulfate via OAT4 and it was clarified that OAT4 is an organic anion transporter which is independent on extracellular sodium (refer to FIG. 3).

OAT4 [5] = target: T1, OAT4; assay: Michaelis-Menten kinetic test of organic anion transport by OAT4 in oocytes injected with OAT4 cRNA; conditions: FIG. 2
Description: After that, the above-mentioned oocytes into which OAT4 cRNA was injected was used for checking the changes in the amount of estrone sulfate, dehydroepiandrosterone sulfate and ochratoxin A incorporated by OAT4 of the present invention at various concentrations whereby a Michaelis-Menten dynamic test for an organic anion transport was carried out.
A Michaelis-Menten dynamic test was carried out for an organic anion transport of OAT4. Changes in the uptake amount of various concentrations of estrone sulfate and dehydroepiandrosterone sulfate by OAT4 were tested whereby concentration dependency of those substrates by OAT4 was investigated. The uptake experiment of labeled estrone sulfate and dehydroepiandrosterone sulfate was carried out according to the above-mentioned method using oocytes into which OAT4 cRNA was injected.

Compound	inhibition of transport of ^3H-estrone sulfate by OAT4 (OAT4 [1])	further results
C[C@H](CCC(=O)O)[C@H]1CC[C@H]2[C@@H]3[C@H](O)C[C@@H]4C[C@H](O)CC[C@]4(C)[C@H]3C[C@H](O)[C@]12C [cholic acid]	significantly inhibited	
CC[N+](CC)(CC)CC [tetraethylammonium]	did not show an inhibiting action; also recorded: did not show any inhibiting action	incorporation (uptake) by oocytes expressing OAT4 (OAT4 [2]): no incorporation was noted
CC(C)Cc1ccc(C(C)C(=O)O)cc1 (stereo not drawn) [ibuprofen]	significantly inhibited	
O=C(O)Cc1ccccc1Nc1c(Cl)cccc1Cl [diclofenac]	significantly inhibited	
O=C1OC(c2ccc(O)c(S(=O)(=O)O)c2)(c2ccc(O)c(S(=O)(=O)O)c2)c2c(Br)c(Br)c(Br)c(Br)c21 [bromosulfophthalein]	significantly inhibited	
CCCCNc1cc(C(=O)O)cc(S(N)(=O)=O)c1Oc1ccccc1 [bumetanide]	significantly inhibited	
O=C(O)[C@H]1O[C@@H](Oc2cccc3ccccc23)[C@H](O)[C@@H](O)[C@@H]1O [α-naphthyl-β-glucuronide]		interaction with OAT4 (inhibitory test) (OAT4 [3]): only a weak interaction with OAT4 except α-naphthyl-β-glucuronide
Nc1cc(N2CCCCC2)nc(N)[n+]1OS(=O)(=O)[O-] [minoxidil sulfate]		interaction with OAT4 (inhibitory test) (OAT4 [3]): all sulfate conjugates except minoxidil sulfate showed an interaction
C[C@H](CCC(=O)NCCS(=O)(=O)O)[C@H]1CC[C@H]2[C@@H]3[C@H](O)C[C@@H]4C[C@H](O)CC[C@]4(C)[C@H]3C[C@H](O)[C@]12C [taurocholic acid]	significantly inhibited	
CC1(C)S[C@@H]2[C@H](NC(=O)Cc3ccccc3)C(=O)N2[C@H]1C(=O)O [penicillin G]	significantly inhibited	
dehydroepiandrosterone sulfate		incorporation (uptake) by oocytes expressing OAT4 (OAT4 [2]; Xenopus laevis oocytes injected with OAT4 cRNA, radiolabeled substrate, FIG. 1, listed as 3H-dehydroepiandrosterone sulfate): incorporated; also recorded: showed incorporation
C[C@@H]1Cc2c(Cl)cc(C(=O)N[C@@H](Cc3ccccc3)C(=O)O)c(O)c2C(=O)O1 [ochratoxin A]		incorporation (uptake) by oocytes expressing OAT4 (OAT4 [2]; Xenopus laevis oocytes injected with OAT4 cRNA, radiolabeled substrate, FIG. 1, listed as 3H-ochratoxin A): incorporated; also recorded: showed incorporation
COc1ccc2c(c1)c(CC(=O)O)c(C)n2C(=O)c1ccc(Cl)cc1 [indomethacin]	significantly inhibited	
estrone sulfate		incorporation (uptake) by oocytes expressing OAT4 (OAT4 [2]; Xenopus laevis oocytes injected with OAT4 cRNA, radiolabeled substrate, FIG. 1, listed as 3H-estrone sulfate): incorporated; also recorded: showed incorporation; change in transport of estrone sulfate via OAT4 on cation substitution (OAT4 [4]): no change; Km (OAT4 [5]): 1.01 ± 0.15 µM
CCCN(CCC)S(=O)(=O)c1ccc(C(=O)O)cc1 [probenecid]	significantly inhibited	
